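Five concentrations, 48 hours, 96-well plates. Here, GI50 denotes the concentration required for 50% inhibition of growth. TGI: total growth inhibition.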
Legend:
Assay in all cases: inhibition of tumour cell growth, NCI panel, 48 h
[1] = tested on: HCT-15 colon
[2] = tested on: HCT-116 colon
[3] = tested on: BT-549 breast
[4] = tested on: OVCAR-8 ovarian
[5] = tested on: SF-295 CNS
[6] = tested on: HOP-92 NSCLC
[7] = tested on: KM12 colon
[8] = tested on: U251 CNS
[9] = tested on: NCI-H460 lung
[10] = tested on: MDA-MB-435
[11] = tested on: SW-620 colon
[12] = tested on: UACC-62 melanoma
[13] = tested on: MCF7 breast
[14] = tested on: NCI-H522 lung
[15] = tested on: EKVX NSCLC
[16] = tested on: SK-MEL-28 melanoma
[17] = tested on: RXF 393 renal
[18] = tested on: SN12C renal
[19] = tested on: SF-268 CNS
[20] = tested on: MALME-3M melanoma
[21] = tested on: HT29 colon
[22] = tested on: LOX IMVI melanoma
[23] = tested on: HOP-62 NSCLC
[24] = tested on: CAKI-1 renal
[25] = tested on: ACHN renal
[26] = tested on: UACC-257 melanoma
[27] = tested on: A549 NSCLC
[28] = tested on: SNB-75 CNS
[29] = tested on: A498 renal
[30] = tested on: OVCAR-4 ovarian
[31] = tested on: 786-0 renal
[32] = tested on: SK-OV-3 ovarian
[33] = tested on: DU-145 prostate
[34] = tested on: IGROV1 ovarian
[35] = tested on: SF-539 CNS
[36] = tested on: OVCAR-3 ovarian
[37] = tested on: PC-3 prostate
[38] = tested on: RPMI-8226 leukemia
[39] = tested on: SK-MEL-2 melanoma
[40] = tested on: TK-10 renal
[41] = tested on: NCI-H23 lung
[42] = tested on: COLO 205 colon
[43] = tested on: HS 578T breast
[44] = tested on: OVCAR-5 ovarian
[45] = tested on: SK-MEL-5 melanoma
[46] = tested on: UO-31 renal
[47] = tested on: SNB-19 CNS
[48] = tested on: MDA-MB-231 breast
[49] = tested on: HL-60(TB) leukemia
[50] = tested on: T-47D breast
[51] = tested on: NCI-H226 lung
[52] = tested on: HCC-2998 colon

CCOC(=O)c1c(NC(=O)c2ccc(C(F)(F)F)cc2)sc2c3c(ccc12)OCN(C)C3
GI50 [1]: 1.74 µM | TGI [1]: 3.28 µM | GI50 [2]: 1.74 µM | TGI [2]: 3.34 µM | GI50 [3]: > 100 µM | TGI [3]: > 100 µM | GI50 [4]: 1.86 µM | TGI [4]: 3.76 µM | GI50 [5]: 1.79 µM | TGI [5]: 3.32 µM | GI50 [6]: 1.14 µM | TGI [6]: 2.68 µM | GI50 [7]: 2.01 µM | TGI [7]: 3.77 µM | GI50 [8]: 1.71 µM | TGI [8]: 3.34 µM | GI50 [9]: 1.89 µM | TGI [9]: 3.55 µM | GI50 [10]: 1.65 µM | TGI [10]: 3.16 µM | GI50 [11]: 1.78 µM | TGI [11]: 3.42 µM | GI50 [12]: 1.72 µM | TGI [12]: 3.28 µM | GI50 [13]: 1.62 µM | TGI [13]: 3.08 µM | GI50 [14]: 1.72 µM | TGI [14]: 3.35 µM | GI50 [15]: 1.69 µM | TGI [15]: 3.36 µM | GI50 [16]: 1.8 µM | TGI [16]: 3.28 µM | GI50 [17]: 1.56 µM | TGI [17]: 2.97 µM | GI50 [18]: 1.79 µM | TGI [18]: 3.43 µM | GI50 [19]: 1.83 µM | TGI [19]: 3.66 µM | GI50 [20]: 1.83 µM | TGI [20]: 3.51 µM | GI50 [21]: 1.75 µM | TGI [21]: 3.34 µM | GI50 [22]: 1.65 µM | TGI [22]: 3.21 µM | GI50 [23]: 2 µM | TGI [23]: 4.32 µM | GI50 [24]: 1.67 µM | TGI [24]: 3.2 µM | GI50 [25]: 1.8 µM | TGI [25]: 3.24 µM | GI50 [26]: 1.62 µM | TGI [26]: 3.27 µM | GI50 [27]: 1.79 µM | TGI [27]: 3.61 µM | GI50 [28]: 1.49 µM | TGI [28]: 3.34 µM | GI50 [29]: 1.67 µM | TGI [29]: 3.21 µM | GI50 [30]: 1.76 µM | TGI [30]: 3.46 µM | GI50 [31]: 2.22 µM | TGI [31]: 4.92 µM | GI50 [32]: 1.95 µM | TGI [32]: 3.77 µM | GI50 [33]: 1.81 µM | TGI [33]: 3.41 µM | GI50 [34]: 1.81 µM | TGI [34]: 3.52 µM | GI50 [35]: 1.75 µM | TGI [35]: 3.3 µM | GI50 [36]: 1.79 µM | TGI [36]: 3.33 µM | GI50 [37]: 1.53 µM | TGI [37]: 3.15 µM | GI50 [38]: 1.33 µM | TGI [38]: 3.86 µM | GI50 [39]: 1.8 µM | TGI [39]: 3.44 µM | GI50 [40]: 1.68 µM | TGI [40]: 3.13 µM | GI50 [41]: 1.81 µM | TGI [41]: 3.5 µM | GI50 [42]: 1.78 µM | TGI [42]: 3.5 µM | GI50 [43]: 1.84 µM | TGI [43]: 3.97 µM | GI50 [44]: 1.8 µM | TGI [44]: 3.4 µM | GI50 [45]: 1.81 µM | TGI [45]: 3.45 µM | GI50 [46]: 1.55 µM | TGI [46]: 2.95 µM | GI50 [47]: 1.78 µM | TGI [47]: 3.52 µM | GI50 [48]: 1.86 µM | TGI [48]: 3.7 µM | GI50 [49]: 1.69 µM | TGI [49]: 4.74 µM | GI50 [50]: 1.84 µM | TGI [50]: 3.96 µM | GI50 [51]: 1.79 µM | TGI [51]: 3.6 µM | GI50 [52]: 1.67 µM | TGI [52]: 3.15 µM
